Laboratory results published in ChEMBL document CHEMBL1134868, “Phosphonate and phosphinate analogues of N-acylated gamma-glutamylglutamate. potent inhibitors of glutamate carboxypeptidase II” (Bioorg Med Chem Lett, 2002).
pIC50: −log10 of the molar value.

How the values were obtained:
[1] = biological target: T1, Folylpolyglutamate synthase, mitochondrial (Homo sapiens, UniProt Q05932); test: Compound was evaluated for its ability to inhibit Folyl-poly-gamma-glutamyl synthetase
T1 sequence (Q05932 whole entry): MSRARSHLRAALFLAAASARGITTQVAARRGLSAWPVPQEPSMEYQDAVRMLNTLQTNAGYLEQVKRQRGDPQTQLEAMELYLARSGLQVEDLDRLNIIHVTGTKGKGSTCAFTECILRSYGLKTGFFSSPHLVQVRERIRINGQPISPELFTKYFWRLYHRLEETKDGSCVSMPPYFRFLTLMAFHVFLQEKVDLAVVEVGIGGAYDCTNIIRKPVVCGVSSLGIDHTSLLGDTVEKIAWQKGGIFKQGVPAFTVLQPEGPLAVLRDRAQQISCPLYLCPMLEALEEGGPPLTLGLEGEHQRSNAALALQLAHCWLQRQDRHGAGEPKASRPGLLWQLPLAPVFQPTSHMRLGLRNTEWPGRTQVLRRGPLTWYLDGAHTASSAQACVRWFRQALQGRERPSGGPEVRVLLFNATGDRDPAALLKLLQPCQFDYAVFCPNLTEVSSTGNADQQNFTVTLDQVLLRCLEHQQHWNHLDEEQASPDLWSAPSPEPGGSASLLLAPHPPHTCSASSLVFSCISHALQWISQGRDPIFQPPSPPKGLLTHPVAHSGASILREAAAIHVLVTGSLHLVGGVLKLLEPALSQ

[2] = biological target: Glutamate carboxypeptidase 2 (Rattus norvegicus, UniProt P70627); test: Compound was evaluated for its ability to inhibit Glutamate carboxypeptidase-II using N-acetyl-L-aspartyl-[3H]L-glutamate as substrate
Chain of Glutamate carboxypeptidase 2 (P70627 whole entry): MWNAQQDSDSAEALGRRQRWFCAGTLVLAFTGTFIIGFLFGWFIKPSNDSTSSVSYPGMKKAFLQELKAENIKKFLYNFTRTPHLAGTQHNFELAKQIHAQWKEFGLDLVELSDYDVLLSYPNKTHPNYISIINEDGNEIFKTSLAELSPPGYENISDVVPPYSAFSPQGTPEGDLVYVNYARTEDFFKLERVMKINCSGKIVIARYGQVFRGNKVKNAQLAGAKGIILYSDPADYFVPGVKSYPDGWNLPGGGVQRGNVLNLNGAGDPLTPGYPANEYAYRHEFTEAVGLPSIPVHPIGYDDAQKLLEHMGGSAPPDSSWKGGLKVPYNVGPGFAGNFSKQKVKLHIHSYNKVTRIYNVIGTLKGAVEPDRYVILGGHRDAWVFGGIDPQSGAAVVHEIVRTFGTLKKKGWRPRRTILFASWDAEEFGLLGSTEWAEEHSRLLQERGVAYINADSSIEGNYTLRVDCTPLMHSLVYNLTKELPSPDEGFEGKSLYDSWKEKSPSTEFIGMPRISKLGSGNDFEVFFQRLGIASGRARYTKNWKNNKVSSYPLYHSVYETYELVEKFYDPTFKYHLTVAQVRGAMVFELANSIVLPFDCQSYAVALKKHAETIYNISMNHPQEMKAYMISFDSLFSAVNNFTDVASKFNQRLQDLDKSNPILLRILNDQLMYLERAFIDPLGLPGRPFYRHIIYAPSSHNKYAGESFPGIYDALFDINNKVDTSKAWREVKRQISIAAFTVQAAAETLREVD

[3] = Compound was evaluated for its ability to inhibit Gamma glutamylhydroxylase

Structure (SMILES) | pIC50 [1] | pIC50 [2] | pIC50 [3]
CN(Cc1cnc2nc(N)nc(N)c2n1)c1ccc(C(=O)NC(CCP(=O)(O)OC(CCC(=O)O)C(=O)O)C(=O)O)cc1 (stereo not given) | 7.70 | 8.30 | 
CNc1ccc(C(=O)N[C@@H](CCP(=O)(O)O[C@@H](CCC(=O)O)C(=O)O)C(=O)O)cc1 | 5.24 | 8.40 | 
CN(Cc1cnc2nc(N)nc(N)c2n1)c1ccc(C(=O)N[C@@H](CCP(=O)(O)O[C@@H](CCC(=O)O)C(=O)O)C(=O)O)cc1 | 6.92 | 8.40 | < 3.70
Nc1ccc(C(=O)N[C@@H](CCP(=O)(O)O[C@@H](CCC(=O)O)C(=O)O)C(=O)O)cc1 | 5.07 | 8.52 | < 3.70
